One experiment has as its target T1, purified STAT1 protein (Homo sapiens, UniProt P42224).
T1 sequence (P42224 1-750): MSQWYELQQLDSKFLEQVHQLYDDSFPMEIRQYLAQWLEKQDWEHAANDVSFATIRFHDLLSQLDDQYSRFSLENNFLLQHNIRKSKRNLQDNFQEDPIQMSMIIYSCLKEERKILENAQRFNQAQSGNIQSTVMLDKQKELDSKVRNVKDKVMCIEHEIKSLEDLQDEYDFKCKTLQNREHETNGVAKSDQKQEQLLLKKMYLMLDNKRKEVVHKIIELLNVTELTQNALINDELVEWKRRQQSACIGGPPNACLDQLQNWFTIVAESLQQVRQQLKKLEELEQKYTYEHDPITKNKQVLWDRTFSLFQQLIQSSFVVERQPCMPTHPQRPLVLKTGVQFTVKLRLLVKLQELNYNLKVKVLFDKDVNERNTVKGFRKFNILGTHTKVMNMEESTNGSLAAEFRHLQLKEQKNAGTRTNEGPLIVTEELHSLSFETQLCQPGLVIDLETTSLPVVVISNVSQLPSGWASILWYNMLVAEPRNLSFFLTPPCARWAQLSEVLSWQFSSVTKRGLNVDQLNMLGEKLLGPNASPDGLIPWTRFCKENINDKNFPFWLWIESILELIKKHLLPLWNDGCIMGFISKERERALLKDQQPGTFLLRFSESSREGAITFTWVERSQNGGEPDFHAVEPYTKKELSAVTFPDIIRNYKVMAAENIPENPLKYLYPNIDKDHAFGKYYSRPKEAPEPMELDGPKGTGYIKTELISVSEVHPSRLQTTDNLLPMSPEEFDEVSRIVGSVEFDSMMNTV
The experiment in a line: Protein thermal shift (PTS) assay of STAT1. The class given is binding. Particulars: for ΔTm at 0.02 µM: 20 nM. On the procedure: FIG. 5 illustrates an embodiment of the present invention and illustrates evaluations of SIM-1 and SIM-2 as STAT3 inhibitors. (A) Protein thermal shift assay was performed to assess the melting of purified recombinant STAT3 (blue; 0.5 μg protein) (Tm=melting temperature=68.88° C.). The representative melting curves were derived after adding SIM-1 (red; 4 nM), SIM-2 (purple; 8 nM), and positive control stattic (grey; 20 nM) to the STAT3 protein. The differences of melting temperature (ΔTm) between pure protein and protein+ligands are −4.54° C., −4.16° C., and 0.39° C. for SIM-1, SIM-2, and stattic (ΔTm^cut-off>2° C.). (B) Phospho protein array analysis was conducted in cell lysates of MDA-MB-468 cells treated with DMSO control (top left), 25 ng/mL EGF (top right), EGF+10 nM SIM-1 (bottom left), and EGF+SIM-2 (bottom right) for 24 hrs. Each colored arrowhead represents a specific phosphoprotein, and the description was added in the bottom of array images. S=serine and Y=tyrosine. Relative levels of (C) Tyrosine 705 (Y705) phosphorylated STAT3, (D) Serine 727 (S727) phosphorylated STAT3, (E) Tyrosine 693 (Y693) phosphorylated STAT4, (F) Tyrosine 694 ([…]) phosphorylated STAT5A had been derived after normalizing the spot densities (n=5) with respective β-actin spots. Results are mean±SD of five different spot analyses. One-way ANOVA was adopted to test the significance of mean between groups at **p<0.01, and ****p<0.0001. Ns=no significance. Thermal shift assays of increasing doses of (G) SIM-1, (H) SIM-2, and (I) stattic with purified STAT1 protein (0.5 μg protein). The respective ΔTm values were given with the plot after matching with the color code. Similarly, full-length STAT5b protein melting was assessed with (J) SIM-1, (K) SIM-2, and (L) stattic. Results are confirmed after three different experiments.
To confirm the result, PTS assay of STAT1 with SIM-1 (FIG. 5G), SIM-2 (FIG. 5H), and stattic (FIG. 5I) was performed. […] Similar results were observed while performing the binding assay with STAT5b.

The test system of experiment [1] is cell cycle genes in TNBC tumors. The experiment in a line: Real-time PCR of cell cycle genes in PDX tumors. In kind it is in vivo, mouse. The settings on record: tumor tissue. How it is done: FIG. 13 illustrates an embodiment of the present invention and illustrates the effects of SIM-1 and SIM-2 on the growth arrest of TNBC tumors. […] The higher magnification images were given below. (B) Area of 50 randomly selected cells (10 different images from n=5 mice/group) from three different groups were measured using polygon tool of ImageJ software and then the scatter histogram analysis was performed using GraphPad Prism 10 statistical software package. The significance of mean between groups (***p<0.001 versus control) was calculated by one-way ANOVA analysis (effector: treatment). (C) IHC staining of cell growth marker Ki-67 in vehicle-, SIM-1-, and SIM-2-treated tumors represents the cell growth property of tumor cells. […] Both hematoxylin-ir nuclei (total cells) and Ki-67-ir cells were counted in n=15 images per group, converted in percent scale, and then plotted as scatter histogram. ****p<0.0001 vs. control as derived by one-way ANOVA. (E) IHC staining of cell proliferation marker PCNA in three different groups. (F) Scatter histogram analysis of […] counted from n=15 images per group and then plotted as percent scale. […] (G) A gene array of 84 genes in a validated human breast cancer gene array (RT^2 Profiler™ PCR array; Cat #PAHS-131ZA; Qiagen) was conducted in cDNA samples extracted from TNBC tumors of vehicle, SIM-1- and SIM-2-treated (n=3) groups. The resultant gene expressions were converted in log scale and then compared with the vehicle in (G) SIM-1 and (H) SIM-2 treated groups as shown in scatter plots. […] (I) Validation of gene expressions of CCND1, CCND2, CCNE1, CDK2 genes were performed by real-time PCR analysis. (J) Upregulations of CDKN1A, and CDKN2A in SIM-1- and SIM-2-treated groups were validated by real-time PCR analyses. were Significance of mean calculated by one-way ANOVA resulted […] versus respective vehicle-groups. The results are confirmed after three different experiments.
To assess the histopathological changes in tumor parenchyma, H&E staining of tumor tissue was performed in three different groups (FIG. 13A). The hematoxylin-stained cells appeared with enlarged and densely colored nuclei characteristic of growing and mitotic tumor cells. […] The result was further corroborated with the quantitative analyses of cell size (FIG. 13B). […] To further confirm, we performed a gene array with a validated RNA array kit (Qiagen) of genes that are involved in the growth and proliferation of breast cancer cells. Relative expressions of different genes were summarized by heatmap clusterogram analyses (FIG. 14D).
For orientation: In qPCR the cycle at which signal appears reflects the starting amount.

Broadly, the ΔTm is the shift of the melting midpoint relative to a reference. `O=C(O)CCC(=O)NCc1csc2ccc(Cl)cc12` [SIM-1, 4-[(5-chloro-1-benzothiophen-3-yl)methylamino]-4-oxobutanoic acid]: the ΔTm at 0.02 µM at purified STAT1 protein was found to be 0.29 °C. The “ΔTm of STAT1” value on purified STAT1 protein (concentration printed only as 'nM' (figure missing)) was found to be 0.41 °C. Moreover, in experiment [1], the “expression of CCND1, CCND2, CCNE1 and CDK2 (real-time PCR)” value was “strongly suppressed”; the “expression of CDKN1A and CDKN2A (real-time PCR)” value is “significantly induced”.
As for `CCOC(=O)c1c(NC(C)=O)sc2c(Cl)c(/C=N/O)ccc12` [SIM-2, ethyl 2-acetamido-7-chloro-6-(hydroxyiminomethyl)-1-benzothiophene-3-carboxylate], the ΔTm at 0.01 µM at purified STAT1 protein (10 nM) was found to be 0.46 °C. Further, the ΔTm at 0.02 µM on purified STAT1 protein was 0.89 °C. In addition, in experiment [1], the “expression of CCND1, CCND2, CCNE1 and CDK2 (real-time PCR)” value is listed as “strongly suppressed”; the “expression of CDKN1A and CDKN2A (real-time PCR)” value is “significantly induced”.

The values above are taken from US20250255847A1, “[…]s: Novel Drugs for Triple Negative Breast Cancer” (SIMMARON RSEARCH INC, priority 2024, published 2025).
